Each structure is given as a SMILES string. Read-outs that look alike come from different tables or passages of the source.

Holding throughout (format): cell-based, human
Assay [1] relates to HTT. The assay can be described thus: Splicing RT-qPCR assay, HTT mRNA canonical junction (CJ) and alternative junction (AJ). The conditions noted are these: Homo sapiens, read-out: HTT IC50 (decrease in CJ mRNA levels). A digest of the protocol:
(§1)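 Cells: A673 (DMEM/10% FBS) or K562 (IMDM/10% FBS). Dose: 11-pt 3-fold, top 10 uM final, ≤0.25% DMSO, 24 h, 37 °C. Readout: RT-qPCR of CJ/AJ exon junctions, ΔΔCt vs housekeeper and DMSO, RQ to % response.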
In general terms: Quantitative PCR measures a nucleic acid by following its amplification.

The next assay concerns SMN2. The assay is described as follows: Splicing RT-qPCR panel, SMN2 canonical junction (CJ) mRNA. Particulars: Homo sapiens, read-out: SMN2 IC50 (decrease in CJ mRNA levels). A digest of the protocol: as §1
The next assay relates to Target C. The assay is described as follows: Splicing RT-qPCR panel, Target C canonical junction (CJ) mRNA. The conditions noted are these: Homo sapiens, read-out: Target C IC50 (decrease in CJ mRNA levels). A digest of the protocol: as §1
For the next assay, the system named is MYB. The assay can be described thus: HiBiT protein abundance assay, MYB. The conditions noted are these: Homo sapiens, K562, 24 h, modified K562 cells. A digest of the protocol:
(§2)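 HiBiT knock-in K562, 10000 cells/well, 24 h cpd at 37 °C/5% CO2; 10-pt 3-fold series from 10 μM final; DMSO ≤0.25%. Lytic detection, luminescence read. 4PL fit → IC50 vs DMSO control; unmodified K562 = baseline.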

The test system of assay [2] is HTT. The assay can be described thus: HiBiT protein abundance assay, HTT. Particulars: Homo sapiens, K562, 24 h, modified K562 cells. A digest of the protocol:
as §2
(HiBiT is a short tag that completes a luciferase, so light tracks the accessible tagged protein.)

Setting [3] is: RT-qPCR panel, canonical junction mRNA, compound concentration having 50% response in CJ decrease.
Setting [4] is: gene panel, CJ qPCR, protocol of Example 142.

As to `Cc1nc(-c2ccc(-c3cnc(N(C)[C@@H]4C[C@H]5CCC[C@@H](C4)N5)nn3)c3scnc23)cs1` [Compound 579], the IC50 in the assay on HTT [1] (setting [3]) lay within 100 to 1000 nM; in the assay with SMN2 (setting [3]), 100 to 1000 nM; with Target C (setting [3]) it was 100 to 1000 nM; in the assay on MYB (Table 13A), 1000 to 10000 nM; in the assay with HTT [2] (Table 13A) it was 100 to 1000 nM.

Consider `Cc1cc(-c2ccc(-c3cnc(N(C)[C@@H]4C[C@H]5CCC[C@@H](C4)N5)nn3)c3scnc23)sn1` [Compound 580], for which the IC50 in the assay on HTT [1] (setting [3]) is under 100 nM; with SMN2 (setting [3]), under 100 nM; in the assay on Target C (setting [3]) it was under 100 nM; in the assay on MYB (Table 13A) it was 100 to 1000 nM; with HTT [2] (Table 13A), under 100 nM.

On to `CC(C)(C)[C@H]1CN(c2ncc(-c3ccc(-n4cccn4)c4[nH]ncc34)nn2)CCN1` [Compound 581], for which the IC50 was under 100 nM in the assay with HTT [1] (setting [3]); 100 to 1000 nM in the assay on SMN2 (setting [3]); 100 to 1000 nM in the assay on Target C (setting [3]); 100 to 1000 nM in the assay on MYB (Table 13A); under 100 nM in the assay with HTT [2] (Table 13A).

Regarding `COc1nc(-c2ccc(N(C)[C@@H]3C[C@H]4CC[C@@H](C3)N4)nn2)ccc1-c1cn[nH]c1` [Compound 906], the IC50 in the assay on HTT [1] (setting [4]), in the assay on SMN2 (setting [4]), with Target C (setting [4]), in the assay with MYB (Table 13B) and in the assay on HTT [2] (Table 13B) was under 100 nM throughout.

With `CN(c1ccc(-c2ccc(-c3cn[nH]c3)cn2)nn1)[C@@H]1C[C@H]2CC[C@@H](C1)N2` [Compound 915], the IC50 with HTT [1] (setting [4]) was 100 to 1000 nM; with SMN2 (setting [4]), over 10000 nM; in the assay on Target C (setting [4]), 1000 to 10000 nM; in the assay on MYB (Table 13B), 1000 to 10000 nM; in the assay on HTT [2] (Table 13B), 100 to 1000 nM.

With `COc1nc(-c2ccc(OC3CC(C)(C)NC(C)(C)C3)nn2)ccc1-c1cn[nH]c1` [Compound 917], the IC50 in the assay with HTT [1] (setting [4]) is 100 to 1000 nM; with SMN2 (setting [4]), under 100 nM; with Target C (setting [4]), 100 to 1000 nM; in the assay with MYB (Table 13B) it was 100 to 1000 nM; with HTT [2] (Table 13B) it was under 100 nM.

For the compound `COc1nc(-c2ccc(OC3CC(C)(C)NC(C)(C)C3)nn2)ccc1-c1cnn(C)c1` [Compound 918], the IC50 was 100 to 1000 nM in the assay with HTT [1] (setting [4]); under 100 nM in the assay on SMN2 (setting [4]); 100 to 1000 nM in the assay with Target C (setting [4]); 100 to 1000 nM in the assay with MYB (Table 13B); under 100 nM with HTT [2] (Table 13B).

As for `COc1nc(-c2ccc(N(C)C3CC(C)(C)NC(C)(C)C3)nn2)ccc1-c1cn[nH]c1` [Compound 919], the IC50 in the assay on HTT [1] (setting [4]) was under 100 nM; with SMN2 (setting [4]) it was under 100 nM; in the assay with Target C (setting [4]) it was 100 to 1000 nM; with MYB (Table 13B), 100 to 1000 nM; in the assay on HTT [2] (Table 13B), under 100 nM.

On to `COc1nc(-c2ccc(N(C)C3CC(C)(C)NC(C)(C)C3)nn2)ccc1-c1cnn(C)c1` [Compound 920], for which the IC50 was 100 to 1000 nM in the assay with HTT [1] (setting [4]); under 100 nM in the assay with SMN2 (setting [4]); 100 to 1000 nM in the assay with Target C (setting [4]); 100 to 1000 nM in the assay with MYB (Table 13B); under 100 nM in the assay on HTT [2] (Table 13B).

For the compound `CN(c1ccc(-c2ccc(-c3cn[nH]c3)c(F)n2)nn1)[C@@H]1C[C@H]2CC[C@@H](C1)N2` [Compound 922], the half-maximal inhibitory concentration (IC50) in the assay on HTT [1] (setting [4]) was under 100 nM; in the assay with SMN2 (setting [4]) it was under 100 nM; with Target C (setting [4]) it was 100 to 1000 nM; in the assay on MYB (Table 13B), under 100 nM; in the assay with HTT [2] (Table 13B), under 100 nM.

Consider `CN(c1ccc(-c2ccc(-c3cn[nH]c3)c(C#N)n2)nn1)[C@@H]1C[C@H]2CC[C@@H](C1)N2` [Compound 930], for which the IC50 in the assay on HTT [1] (setting [4]) was under 100 nM; in the assay on SMN2 (setting [4]), under 100 nM; in the assay with Target C (setting [4]) it was 100 to 1000 nM; with MYB (Table 13B) it was under 100 nM; with HTT [2] (Table 13B), under 100 nM.

In the case of `COc1nc(-c2ccc(N(C)[C@@H]3C[C@H]4CC[C@@H](C3)N4)nn2)cc(F)c1-c1cn[nH]c1` [Compound 931], the IC50 in the assay with HTT [1] (setting [4]), in the assay on SMN2 (setting [4]), in the assay with Target C (setting [4]), in the assay on MYB (Table 13B) and in the assay with HTT [2] (Table 13B) was under 100 nM throughout.

Take `CN(c1ccc(-c2ccc(-c3cn[nH]c3)c(OC3CC3)n2)nn1)[C@@H]1C[C@H]2CC[C@@H](C1)N2` [Compound 939]: the concentration for half-maximal inhibition (IC50) was under 100 nM in the assay with HTT [1] (setting [4]); under 100 nM in the assay on SMN2 (setting [4]); 100 to 1000 nM in the assay with Target C (setting [4]); under 100 nM in the assay on MYB (Table 13B); under 100 nM in the assay with HTT [2] (Table 13B).

On to `COc1cc(-c2ccc(-c3ccc(N(C)[C@@H]4C[C@H]5CC[C@@H](C4)N5)nn3)nc2OC)ncn1` [Compound 954], for which the IC50 with HTT [1] (setting [4]) lay in the range of 1000 to 10000 nM; in the assay with SMN2 (setting [4]), 100 to 1000 nM; with Target C (setting [4]), 1000 to 10000 nM; with MYB (Table 13B), 1000 to 10000 nM; in the assay with HTT [2] (Table 13B) it was 100 to 1000 nM.

Regarding `CN(c1ccc(-c2ccc(-c3cn[nH]c3)c(OC(F)F)n2)nn1)[C@@H]1C[C@H]2CC[C@@H](C1)N2` [Compound 955], the IC50 is under 100 nM in the assay with HTT [1] (setting [4]); under 100 nM with SMN2 (setting [4]); 100 to 1000 nM in the assay on Target C (setting [4]); under 100 nM in the assay on MYB (Table 13B); under 100 nM in the assay with HTT [2] (Table 13B).

With `COc1nc(-c2ccc(N3CCC(NC(C)(C)C)C3)nn2)ccc1-c1cn[nH]c1` (centres unmarked) [Compound 956], the IC50 is under 100 nM in the assay on HTT [1] (setting [4]); under 100 nM in the assay with SMN2 (setting [4]); 100 to 1000 nM in the assay on Target C (setting [4]); 100 to 1000 nM in the assay with MYB (Table 13B); under 100 nM with HTT [2] (Table 13B).

Turning to `COc1nc(-c2ccc(N(C)[C@@H]3C[C@H]4CC[C@@H](C3)N4)nn2)ccc1-c1ccnc(O)c1` [Compound 961], the concentration for half-maximal inhibition (IC50) in the assay on HTT [1] (setting [4]) is 100 to 1000 nM; in the assay on SMN2 (setting [4]), 100 to 1000 nM; in the assay on Target C (setting [4]), 100 to 1000 nM; with MYB (Table 13B), 1000 to 10000 nM; in the assay on HTT [2] (Table 13B), 100 to 1000 nM.

`COc1nc(-c2ccc(O[C@@H]3C[C@H]4CC[C@@H](C3)N4)nn2)ccc1-c1cnc(C)s1` [Compound 962]: the IC50 with HTT [1] (setting [4]) lay within 100 to 1000 nM; in the assay with SMN2 (setting [4]), 100 to 1000 nM; with Target C (setting [4]) it was 1000 to 10000 nM; with MYB (Table 13B), 100 to 1000 nM; with HTT [2] (Table 13B), 100 to 1000 nM.

Regarding `COc1nc(-c2ccc(OC3CC(C)(C)NC(C)(C)C3)nn2)cc(F)c1-c1cn[nH]c1` [Compound 965], the half-maximal inhibitory concentration (IC50) in the assay on HTT [1] (setting [4]) is under 100 nM; with SMN2 (setting [4]), under 100 nM; in the assay on Target C (setting [4]) it was 100 to 1000 nM; in the assay on MYB (Table 13B), 100 to 1000 nM; with HTT [2] (Table 13B) it was under 100 nM.

As for `CCOc1nc(-c2ccc(OC3CC(C)(C)NC(C)(C)C3)nn2)cc(F)c1-c1cn[nH]c1` [Compound 966], the IC50 in the assay on HTT [1] (setting [4]), in the assay on SMN2 (setting [4]), with Target C (setting [4]), with MYB (Table 13B) and in the assay on HTT [2] (Table 13B) was under 100 nM each time.

For `CCOc1nc(-c2ccc(OC3CC(C)(C)NC(C)(C)C3)nn2)ccc1-c1cn[nH]c1` [Compound 967], the IC50 was under 100 nM with HTT [1] (setting [4]); under 100 nM in the assay on SMN2 (setting [4]); 100 to 1000 nM with Target C (setting [4]); 100 to 1000 nM with MYB (Table 13B); under 100 nM in the assay with HTT [2] (Table 13B).

On to `COc1nc(-c2ccc(OC3CC4CC(F)(F)C(C3)N4)nn2)cc(F)c1-c1cn[nH]c1` (centres unmarked) [Compound 969], for which the IC50 with HTT [1] (setting [4]) is 1000 to 10000 nM; in the assay on SMN2 (setting [4]), 1000 to 10000 nM; in the assay on Target C (setting [4]), over 10000 nM; in the assay with MYB (Table 13B), 100 to 1000 nM; in the assay on HTT [2] (Table 13B), 100 to 1000 nM.

One may read the IC50 as the concentration that inhibits the measured activity by half.

These data come from US20240368163A1, “COMPOUNDS AND METHODS FOR MODULATING SPLICING” (REMIX THERAPEUTICS INC., priority 2021, published 2024).
